From US20250333398A1, “MONOARYL AND HETARYL SUBSTITUTED INDAZOLES AND BENZIMIDAZOLES AS STING ANTAGONISTS AND THE USE THEREOF AS MEDICAMENT” (Boehringer Ingelheim International GmbH, priority 2024, published 2025)

Experiments:
[1] = biological target: T1, human STING WT (R232); test: Human STING HTRF binding assay (competitive, Cisbio 64BDSTGPEG); conditions: 6His tagged human STING WT R232, competition with STING ligand-d2
T1 construct: purchased Cisbio 64BDSTGPEG
Protocol: Binders to human STING WT (R232) were identified using a competitive HTRF assay format (Cisbio 64BDSTGPEG), which uses d2-labeled STING ligand, a 6His tagged human STING protein, and an anti 6His Cryptate-labeled antibody. Compounds compete with the STING ligand-d2 and thereby prevents FRET from occurring, which can be measured by an EnVision™ reader (PerkinElmer).
Assay method: Compounds were delivered as 10 mM DMSO solution, serially diluted by an Agilent Bravo Workstation and transferred to the 384 well assay plate (Perkin Elmer #6005359) using a Cybiwell dispenser. Typically, 8 concentrations were used with the highest concentration at 10 μM or 1 μM in the final assay volume followed by ^˜1:5 dilution steps. DMSO concentration was set to 1% in the final assay volume. The 384 well assay plate contained 20 test compounds and DMSO in column 23 and 24. A cGAMP standard dilution row was prepared according to the manufacturer and transferred to each assay plate. After transfer of compound solution or dilution buffer for negative (high) and positive (low) controls, 5 μl of the human STING protein (cyclic binding domain (residues 138-379) of the WT R232 human version, fused to a 6 His tag at the Nter part; 1:50 dilution in detection buffer) were dispensed to all wells except of the positive control, which received detection buffer only. Plates were the centrifuged for 20 sec at 1000 rpm. After that, 10 μl of Anti-6His-Cryptate antibody/Sting ligand-d2 mix was added to all wells using a Multidrop combi dispenser, followed by another 20 sec/1000 rpm centrifugation step. After an incubation of the plates for 180 min at room temperature, […] at […] (HTRF ratio) was measured using an Envison Reader (PerkinElmer)
Data evaluation and calculation: For data evaluation and calculation, HTRF ratios were calibrated using the cGAMP standard curve. After that, the measurement of the low control was set as 0% control and the measurement of the high control was set as 100% control. The IC50 values were calculated using the standard 4 parameter logistic regression formula. Calculation: [y=(a−d)/(1+(x/c)^b)+d], a=low value, d=high value; x=conc M; c=IC50 M; b=slope;

[2] = test system: T2, STING; test: Human whole blood assay (HWBA), cGAMP-stimulated IFNα2α production; type: cell-based; conditions: human whole blood stimulated by cGAMP
T2 construct: from tissue; host or cells: human whole blood from healthy donors
Protocol: For the detection of STING inhibition in physiological environment human whole blood was stimulated by the cyclic dinucleotide cGAMP. Pathway activity was monitored by measuring the IFNα2α production.
Assay method: Compounds were delivered as 10 mM DMSO solution and serial diluted and transferred to the 96-well Cell culture Plate (Corning #3595), prefilled with 20 μl OptiMEM (Gibco #11058-021) in each well, using an Echo acoustic dispenser. Typically, 8 concentrations were used with the highest concentration at 10 μM in the final assay volume followed by ^˜1:5 dilution steps. DMSO concentration was set to 0.1% in the final assay volume. The 96 well assay plate contained 9 test compounds, a reference compound and DMSO in control wells.
Collection of human whole blood from 3 or more healthy donors (male or female, no medication for 7 days, exception contraceptive and thyroxine) as Na-citrate blood (e.g. 3.8% in Monovettes from Sarstedt) is conducted in parallel. Whole blood was kept at room temperature for a maximum of 3 hours after collection until use in the assay.
160 μl of the whole blood samples were transferred to each well of the 96-well assay plates filled with compound/OptiMEM. All assay plates are prepared as duplicates with blood from different donors. Blood plates were kept at room temperature for 60 minutes and continuous shaking with 450 rpm, covered with the lid, but not sealed.
A 10× cGAMP assay solution was diluted from a 2 mM stock solution in 1×HBSS immediately before use at room temperature. 20 μl of the 10× cGAMP/HBSS were added to all compound and all high control wells, whereas HBSS only was added to all low control wells.
After covering assay plates with aera seals and the lid, blood plates were kept at room temperature for 30 minutes and continuous shaking with 450 rpm, followed by an overnight incubation of 22 h at 37° C. in the incubator, without shaking.
For the detection of IFNα-2α in human plasma, the biotinylated capture antibody (Antibody set IFNA2, Meso Scale Diagnostics #B21VH-3, including coating and capture antibody) was diluted 1:17.5 in Diluent 100 (Meso Scale Diagnostics #R50AA-4, according to the manufacturer. U-Plex MSD GOLD 96-well Small Spot Streptavidin SECTOR Plates (Meso Scale Diagnostics #L45SA-5) were coated with 25 μl diluted capture antibody. Coated plates were incubated for 60 min at room temperature under continuous shaking at 700 rpm. MSD IFNα-2α plates were washed three times with 150 μl wash buffer (1×HBSS, 0.05% Tween).
After blocking the plates with 100 μl block solution/well (1×HBSS with 0.2% Tween, 2% BSA) for 60 min at room temperature and continuous shaking at 700 rpm, plates were emptied as dry as possible by dumping just before continuing with the human plasma. Whole Blood assay plates were centrifuged at 1600 rpm for 10 minutes. 25 μl of supernatant was transferred with a pipetting robotics from each whole blood plate to the corresponding IFNα-2α plate. Plates were sealed with microplate seals and kept at room temperature again under continuous shaking at 700 rpm for two hours. Next MSD IFNα-2α plates were washed three times with 150 μl wash buffer (1×HBSS, 0.05% Tween), before adding 25 μl MSD SULFO-TAG IFNα-2α Antibody solution (1:100 diluted in Diluent 3 (Meso Scale Diagnostics #R50AP-2) to each well of the plates. Afterwards plates were sealed with microplate seals and kept at room temperature again under continuous shaking at 700 rpm for two hours. Finally, MSD IFNα-2α plates were washed three times with 150 μl wash buffer (1×HBSS, 0.05% Tween). 150 μl 2× Read buffer was added to each well and plates were immediately measured with the MSD Sector S600 Reader using the vendor barcode.
Data evaluation and calculation: For data evaluation and calculation, % control calculation of each well was based on the mean of high (cGAMP stimulated control) and mean of low (unstimulated control) controls by using the following formula: […]

Compound | IC50 [1] [nM] | IC50 [2] [nM]
COc1nn(C2CC2)cc1-n1cc2c(-c3nc(-c4ccc(C(N)=O)cc4OCC(F)F)n(C)c3C3CC3)cccc2n1 [Example 6, 4-{5-cyclopropyl-4-[2-(1-cyclopropyl-3-methoxy-1H-pyrazol-4-yl)-2H-indazol-4-yl]-1-methyl-1H-imidazol-2-yl}-3-(2,2-difluoroethoxy)benzamide] | 16 | 58
CC[P@@](C)(=O)c1ccc(-c2nc(-c3cccc4nn(-c5cn(C6CC6)nc5OC)cc34)c(C3CC3)n2C)c(OC(F)(F)F)c1 [Example 13, 4-(5-cyclopropyl-2-{4-[(R)-ethyl(methyl)phosphoryl]-2-(trifluoromethoxy)phenyl}-1-methyl-1H-imidazol-4-yl)-2-(1-cyclopropyl-3-methoxy-1H-pyrazol-4-yl)-2H-indazole] | 18.9 | 38
CC[P@](C)(=O)c1ccc(-c2nc(-c3cccc4nn(-c5cn(C6CC6)nc5OC)cc34)c(C3CC3)n2C)c(OC(F)(F)F)c1 [Example 14, 4-(5-cyclopropyl-2-{4-[(S)-ethyl(methyl)phosphoryl]-2-(trifluoromethoxy)phenyl}-1-methyl-1H-imidazol-4-yl)-2-(1-cyclopropyl-3-methoxy-1H-pyrazol-4-yl)-2H-indazole] | 6.49 | 11
Cn1nc(-n2cc3c(-c4nc(-c5ccc(C(N)=O)cc5OC(F)(F)F)n(C)c4C4CC4)cccc3n2)cc1C(F)(F)F [Example 8, 4-(5-cyclopropyl-1-methyl-4-{2-[1-methyl-5-(trifluoromethyl)-1H-pyrazol-3-yl]-2H-indazol-4-yl}-1H-imidazol-2-yl)-3-(trifluoromethoxy)benzamide] | 85.3 | 80
